How the values were obtained:
Type in all cases: cell-based
[1] = biological target: T1, M1 muscarinic receptor (Homo sapiens, UniProt P11229); test: Functional mobilization of intracellular calcium (FLIPR), M1-CHO cells; conditions: for Emax: 100% efficacy = maximum response obtained with the Carbachol control; for M1 Activity: M1-CHO cells, calcium mobilization (FLIPR)
T1 construct: expressed in transfected cells; host or cells: CHO (M1-CHO)
T1 sequence (P11229 1-460): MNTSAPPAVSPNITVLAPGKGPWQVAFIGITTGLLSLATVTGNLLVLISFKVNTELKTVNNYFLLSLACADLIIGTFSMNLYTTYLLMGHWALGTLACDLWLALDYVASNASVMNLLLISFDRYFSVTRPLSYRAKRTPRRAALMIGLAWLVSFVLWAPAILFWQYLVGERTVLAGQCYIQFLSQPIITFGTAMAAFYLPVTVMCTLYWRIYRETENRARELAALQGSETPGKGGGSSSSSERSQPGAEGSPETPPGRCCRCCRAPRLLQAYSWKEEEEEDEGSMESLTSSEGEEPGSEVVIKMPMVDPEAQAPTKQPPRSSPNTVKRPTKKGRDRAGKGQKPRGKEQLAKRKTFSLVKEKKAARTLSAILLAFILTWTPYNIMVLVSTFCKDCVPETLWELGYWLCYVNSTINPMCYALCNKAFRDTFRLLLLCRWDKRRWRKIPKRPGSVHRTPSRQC
In short: (§1)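 CHO cells expressing human M1–M4 receptors loaded with Fluo-3 AM or Calcium 3 dye (1 mM probenecid, pH 7.4); 0.5% DMSO final. Agonist mode: compound added directly; antagonist mode: 15 min pre-incubation or co-application, then carbachol at EC80. Fluorescence read 60 s on FLIPR; efficacy relative to carbachol maximum.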

[2] = biological target: T2, M2 muscarinic receptor (Homo sapiens, UniProt P08172); test: Functional mobilization of intracellular calcium (FLIPR), M2-CHO cells; conditions: for Emax: 100% efficacy = maximum response obtained with the Carbachol control; for M2 Activity: M2-CHO cells, calcium mobilization (FLIPR)
T2 construct: expressed in transfected cells; host or cells: CHO (M2-CHO)
T2 sequence (P08172 1-466): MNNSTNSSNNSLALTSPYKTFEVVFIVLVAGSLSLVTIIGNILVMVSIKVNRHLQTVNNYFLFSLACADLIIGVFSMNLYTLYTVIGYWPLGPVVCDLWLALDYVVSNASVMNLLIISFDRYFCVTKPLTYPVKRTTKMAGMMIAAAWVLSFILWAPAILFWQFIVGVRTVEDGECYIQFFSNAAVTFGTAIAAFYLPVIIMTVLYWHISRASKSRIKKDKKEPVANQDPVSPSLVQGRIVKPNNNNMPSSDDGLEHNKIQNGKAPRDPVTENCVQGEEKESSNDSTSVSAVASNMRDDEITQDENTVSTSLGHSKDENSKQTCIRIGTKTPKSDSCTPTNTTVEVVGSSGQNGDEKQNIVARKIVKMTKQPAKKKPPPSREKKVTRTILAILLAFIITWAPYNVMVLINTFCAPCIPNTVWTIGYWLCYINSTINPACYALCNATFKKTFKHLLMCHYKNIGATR
In short: as §1

[3] = biological target: T3, M3 muscarinic receptor (Homo sapiens, UniProt P20309); test: Functional mobilization of intracellular calcium (FLIPR), M3-CHO cells; conditions: for Emax: 100% efficacy = maximum response obtained with the Carbachol control; for M3 Activity: M3-CHO cells, calcium mobilization (FLIPR)
T3 construct: expressed in transfected cells; host or cells: CHO (M3-CHO)
T3 sequence (P20309 whole entry): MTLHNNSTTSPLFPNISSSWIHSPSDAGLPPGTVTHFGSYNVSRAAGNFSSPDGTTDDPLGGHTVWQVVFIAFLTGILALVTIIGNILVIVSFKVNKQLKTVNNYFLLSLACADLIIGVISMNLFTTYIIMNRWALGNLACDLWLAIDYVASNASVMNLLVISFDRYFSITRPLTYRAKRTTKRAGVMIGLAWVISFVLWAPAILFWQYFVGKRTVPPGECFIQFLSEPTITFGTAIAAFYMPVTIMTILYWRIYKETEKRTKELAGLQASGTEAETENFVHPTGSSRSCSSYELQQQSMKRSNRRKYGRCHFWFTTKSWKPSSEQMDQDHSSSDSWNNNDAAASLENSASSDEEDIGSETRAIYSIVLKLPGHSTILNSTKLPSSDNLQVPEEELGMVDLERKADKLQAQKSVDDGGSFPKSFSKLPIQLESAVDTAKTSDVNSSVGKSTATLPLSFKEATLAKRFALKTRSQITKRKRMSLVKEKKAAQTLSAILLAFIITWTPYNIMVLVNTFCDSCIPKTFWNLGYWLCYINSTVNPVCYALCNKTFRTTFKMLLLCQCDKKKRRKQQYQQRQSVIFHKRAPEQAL
Protocol: Functional Mobilization of Intracellular Calcium to Determine Muscarinic Receptor Activity:
CHO cells expressing muscarinic receptors (M1 to M5) are grown as monolayers in tissue culture flasks at 37° C. in a humidified atmosphere containing 5% CO2 and passaged every 3-5 days. The growth media is Dulbecco's modified eagles medium (DMEM, Gibco Cat #12430-054), containing 25 mM Hepes and supplemented with Fetal Bovine Serum (Hyclone, cat #SH30071.03), 0.1 mM of MEM non-essential amino acids (GIBCO, Cat #11140-050), 1 mM MEM Sodium Pyruvate (GIBCO Cat #11360-070) and 100 units/ml of Penicillin G and 100 μg/ml of Streptomycin (GIBCO Cat #15140-122). The recombinant muscarinic receptor cell lines are grown under antibiotic pressure with media containing 25 μg/ml zeocin and 500 μg/ml G418 (M1-CHO), 4 μg/ml puromycin, 50 μg/ml zeocin and 2.5 μg/ml blasticidin (M2 and M4-CHO) or 50 μg/ml zeocin and 4 μg/ml puromycin (M3 and M5-CHO).
Cells are harvested at 80-90% confluence using Versene (GIBCO Cat #15040-066), collected by centrifugation and seeded 18-24 hrs prior to running the calcium assay at a density of 5,000-10,000 cells/well in […], clear-bottomed 384-well plates (BD Biocoat, poly-D-lysine, Cat #356663). The day of the experiment, the cells are washed with a plate washer (Bioteck Instruments, ELX 405) using bath 1 buffer (140-mM NaCl, 4.5-mM KCl, 2-mM CaCl2, 1-mM MgCl2, 10-mM Hepes-Na, 10-mM Glucose, pH 7.4, with NaOH) containing 1 mM Probenecid. Next, the calcium dye Fluo-3 (25 μl/well of Fluo-3 AM at 4 μM, Molecular Probes F-1241, in Bath 1 buffer containing 1 mM Probenecid) is added to the 25 μl of Bath 1 remaining in each well after the plate wash and the dye is loaded at 37° C. in the tissue culture incubator for 60-90 min. The fluorescent dye is removed using the plate washer with Bath 1 containing 1 mM Probenecid, leaving 25 μl/well of this solution after the wash. Alternatively, cells can be loaded with the calcium indicator from Molecular Devices (Calcium 3 Assay Reagents, Cat #R7181) adding 5 μl of a 5× solution dye in Bath 1 containing 1 mM Probenecid (10 ml per dye flask cat #R7182 to generate a solution 20×) to 20 μl of the same buffer. After loading for 60 min, the experiment can be run without having to remove the dye.
Compounds are prepared at a 2× fold concentration in a 96-well plate (round bottom, Costar Corning cat #3656), by reconstituting the pre-spotted compounds in bath 1 containing 1 mM probenecid. The final concentration DMSO is 0.5%, and the amount of DMSO is normalized across the assay plate. To determine an agonist action of the compounds on muscarinic receptors, the reconstituted compounds are added (25 μl compound/well) to the cell assay plate (containing 25 μl/well) using the multi-channel robotic system of the FLIPR 3 Instrument (Molecular Devices, Sunnyvale, Calif.). To determine a functional inhibitory action of the compounds on muscarinic receptors, the reconstituted compounds are added (25 μl compound/well) to the assay plate and pre-incubated for 15 min prior to adding 25 μl of Carbachol at 3× the EC80 for each muscarinic subtype. Alternatively, the compounds can be co-applied simultaneously with the agonist. In both assay modes, the fluorescence is recorded for 60 sec (excitation wavelength is […] and emission wavelength 540 nm) using the FLIPR 3 instrument.
The potency, efficacy and selectivity of the muscarinic compounds were evaluated by screening the compound activity across the whole family (M1 to M5 cells). Compounds were also screened for activity on other proteins such as other GPCRs and ion channels to determine selectivity on M4 receptors.
Examples of activities and efficacies of the muscarinic compounds of formulae (I, Ia, Ib, and II) on modulating M1, M2, M3 and M4 receptors are shown below in Table 3. […]

[4] = biological target: T4, M4 muscarinic receptor (Homo sapiens, UniProt P08173); test: Functional mobilization of intracellular calcium (FLIPR), M4-CHO cells; conditions: for Emax: 100% efficacy = maximum response obtained with the Carbachol control; for M4 Activity: M4-CHO cells, calcium mobilization (FLIPR)
T4 construct: expressed in transfected cells; host or cells: CHO (M4-CHO)
T4 sequence (P08173 1-479): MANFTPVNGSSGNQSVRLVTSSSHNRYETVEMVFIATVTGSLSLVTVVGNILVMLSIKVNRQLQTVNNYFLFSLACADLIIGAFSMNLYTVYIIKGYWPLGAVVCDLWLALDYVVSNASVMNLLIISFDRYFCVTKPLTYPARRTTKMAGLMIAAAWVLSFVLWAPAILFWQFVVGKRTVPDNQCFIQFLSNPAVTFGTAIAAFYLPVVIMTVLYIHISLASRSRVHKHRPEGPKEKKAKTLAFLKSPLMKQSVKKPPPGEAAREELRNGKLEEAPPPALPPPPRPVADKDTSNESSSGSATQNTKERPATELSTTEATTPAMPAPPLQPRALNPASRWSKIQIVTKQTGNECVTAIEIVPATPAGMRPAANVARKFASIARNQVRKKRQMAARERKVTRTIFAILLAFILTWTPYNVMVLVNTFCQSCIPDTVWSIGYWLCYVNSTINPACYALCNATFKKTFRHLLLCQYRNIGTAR
In short: as §1

Emax [1] [%] | Emax [2] [%] | Emax [3] [%] | Emax [4] [%] | Compound | M1 Activity [1] | M2 Activity [2] | M3 Activity [3] | M4 Activity [4]
< 25 | < 25 | < 25 | < 25 | COc1ccc(-c2ccc(C(N)=O)cc2)cc1C1CCN([C@H]2C[C@H]3CC[C@H]2C3)CC1 [Compound 6] | + (activity was measured to be greater than 5.0 μM) | + (activity was measured to be greater than 5.0 μM) | + (activity was measured to be greater than 5.0 μM) | + (activity was measured to be greater than 5.0 μM)
< 25 | < 25 | < 25 | 25 to 100 | COc1ccc(-c2ccc(C(C)=O)cc2)cc1C1CCN([C@H]2C[C@H]3CC[C@H]2C3)CC1 [Compound 7] | + (activity was measured to be greater than 5.0 μM) | + (activity was measured to be greater than 5.0 μM) | + (activity was measured to be greater than 5.0 μM) | ++ (activity was measured to be from 1.0 μM to 5.0 μM)
< 25 | < 25 | < 25 | < 25 | COc1ccc(-c2ccc(C(=O)N3CCOCC3)cc2)cc1C1CCN([C@H]2C[C@H]3CC[C@H]2C3)CC1 [Compound 8] | + (activity was measured to be greater than 5.0 μM) | + (activity was measured to be greater than 5.0 μM) | + (activity was measured to be greater than 5.0 μM) | + (activity was measured to be greater than 5.0 μM)

Further lines, the compound ahead of its results:

Compound | Emax [1] [%] | Emax [2] [%] | Emax [3] [%] | Emax [4] [%] | M1 Activity [1] | M2 Activity [2] | M3 Activity [3] | M4 Activity [4]
COc1ccc(F)cc1C1(F)CCN(C[C@@H]2C[C@H]3C=C[C@H]2C3)CC1 [Compound 5] | 25 to 100 | 25 to 100 | < 25 | 25 to 100 | + (activity was measured to be greater than 5.0 μM) | + (activity was measured to be greater than 5.0 μM) | + (activity was measured to be greater than 5.0 μM) | +++ (activity was measured to be less than 1.0 μM)
COc1ccc(Cl)cc1C1CCN(C2CCCCC2)CC1 [Compound 9] | 25 to 100 | 25 to 100 | < 25 | 25 to 100 | +++ (activity was measured to be less than 1.0 μM) | +++ (activity was measured to be less than 1.0 μM) | + (activity was measured to be greater than 5.0 μM) | +++ (activity was measured to be less than 1.0 μM)
CNC(=O)c1ccc(-c2ccc(OC)c(C3CCN(C4CCOCC4)CC3)c2)cc1Cl [Compound 11] | < 25 | < 25 | < 25 | 25 to 100 | + (activity was measured to be greater than 5.0 μM) | + (activity was measured to be greater than 5.0 μM) | + (activity was measured to be greater than 5.0 μM) | ++ (activity was measured to be from 1.0 μM to 5.0 μM)
O=C(COc1ccccc1C1CCN([C@H]2C[C@H]3CC[C@H]2C3)CC1)c1ccc(F)cc1 [Compound 12] | < 25 | 25 to 100 | < 25 | 25 to 100 | + (activity was measured to be greater than 5.0 μM) | + (activity was measured to be greater than 5.0 μM) | + (activity was measured to be greater than 5.0 μM) | ++ (activity was measured to be from 1.0 μM to 5.0 μM)
COc1ccccc1-c1ccc(OC)c(C2CCN([C@H]3C[C@H]4CC[C@H]3C4)CC2)c1 [Compound 13] | < 25 | < 25 | < 25 | < 25 | + (activity was measured to be greater than 5.0 μM) | + (activity was measured to be greater than 5.0 μM) | + (activity was measured to be greater than 5.0 μM) | + (activity was measured to be greater than 5.0 μM)
CCOC(=O)N1CCC(CN2CCC(c3cc(Cl)ccc3OC)CC2)CC1 [Compound 14] | 25 to 100 | 25 to 100 | < 25 | 25 to 100 | +++ (activity was measured to be less than 1.0 μM) | +++ (activity was measured to be less than 1.0 μM) | + (activity was measured to be greater than 5.0 μM) | +++ (activity was measured to be less than 1.0 μM)
